From US20240342186A1, “PYRIDINE DERIVATIVES WITH N-LINKED CYCLIC SUBSTITUENTS AS cGAS INHIBITORS” (Boehringer Ingelheim International GmbH, priority 2021, published 2024)
pIC50: −log10 of the molar value. Where two headings read alike, the source gives them in different places.

Experiments:
[1] = test system: cellular cGAS activity in baculovirus-stimulated THP1-Dual cells (IRF dependent Lucia luciferase reporter); assay: Human cGAS cell assay: inhibition of IFN induction in virus-stimulated THP1 cells (THP1(vir) IC50); type: cell-based; conditions: read-out: THP1(vir) IC50
Outline: (§1)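 THP1-Dual cells with IRF-dependent Lucia luciferase reporter, stimulated by empty baculovirus (dsDNA delivery activating cGAS) or, for the counter assay, directly by cGAMP. 5000 cells/well, 8 concentrations from 10 μM top, 1% DMSO, 18 h at 37 °C; luminescence read, IC50 by 4-parameter logistic fit versus unstimulated low control.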

cGAS [2] = biological target: T1, cGAS (Homo sapiens (Human), UniProt Q8N884); conditions: groups of page 44/45 of WO 2020/142729; read-out: biochemical (in vitro) IC50 group; cited from earlier work
T1 sequence (Q8N884 whole entry): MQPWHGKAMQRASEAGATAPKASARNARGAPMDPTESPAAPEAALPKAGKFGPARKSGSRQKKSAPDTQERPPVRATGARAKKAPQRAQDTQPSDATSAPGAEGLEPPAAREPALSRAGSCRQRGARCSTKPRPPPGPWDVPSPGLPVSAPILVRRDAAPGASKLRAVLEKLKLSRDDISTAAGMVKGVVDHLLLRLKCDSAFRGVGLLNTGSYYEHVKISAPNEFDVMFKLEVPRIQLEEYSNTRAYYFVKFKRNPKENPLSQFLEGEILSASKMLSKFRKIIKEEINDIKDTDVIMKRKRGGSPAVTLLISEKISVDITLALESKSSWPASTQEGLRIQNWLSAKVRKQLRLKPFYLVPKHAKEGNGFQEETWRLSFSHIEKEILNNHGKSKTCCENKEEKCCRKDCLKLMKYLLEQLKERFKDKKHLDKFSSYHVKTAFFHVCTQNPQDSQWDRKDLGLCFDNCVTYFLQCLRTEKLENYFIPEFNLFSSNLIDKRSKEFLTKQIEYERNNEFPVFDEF

[3] = test system: cGAMP-stimulated THP1-Dual cells (pathway directly downstream of cGAS); assay: cGAMP stimulated counter cell assay: inhibition of IFN induction in cGAMP-stimulated THP1 cells (THP1(cGAMP) IC50); type: cell-based, human; conditions: for IC50: read-out: THP1(cGAMP) IC50 (converted)
Outline: as §1

cGAS [4] = biological target: T1, cGAS; assay: Human cGAS enzyme assay (hcGAS IC50, in vitro), cGAMP formation by RapidFire MS; type: biochemical; conditions: biochemical (in vitro) cGAS inhibition;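 note: enzyme activated by 45 bp dsDNA with GTP and ATP (30 µM each), 60 min compound pre-incubation then 90 min reaction, cGAMP relative to cyclic-di-GMP internal standard, 8-point dilutions up to 10 µM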
[5] = test system: cellular cGAS activity in dsDNA-stimulated human whole blood; assay: Human whole blood assay (hWB IC50): IFNα2α production after dsDNA transfection; type: cell-based; conditions: inhibition of IFN induction in dsDNA-stimulated human whole blood
Outline: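 Citrated blood from healthy donors preincubated 60 min at room temperature with compound (top 10 µM, ~1:5 steps, 0.1% DMSO), then transfected with dsDNA/Fugene and incubated 22 h at 37 °C. Plasma IFNα2α measured by MSD immunoassay; IC50 from 4-parameter fit of % control (stimulated vs unstimulated).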

| pIC50 ([1]; Homo sapiens, THP1-Dual, virus-stimulated THP1 cells) | Compound | pIC50 (cGAS [2]) | IC50 ([3]; Homo sapiens, THP1-Dual, cGAMP-stimulated THP1 cells, counter assay) [nM] | pIC50 ([1]; inhibition of IFN induction in virus-stimulated THP1 cells) | pIC50 (cGAS [4]) | pIC50 [5] | IC50 ([3]; inhibition of IFN induction in cGAMP-stimulated THP1 cells) [nM] | Ratio THP1(cGAMP) IC50 / THP1(vir) IC50 ([3]; selectivity for cGAS inhibition) |
| --- | --- | --- | --- | --- | --- | --- | --- | --- |
| 4.77 | Cc1nc(N2C[C@@H](Cc3nn[nH]n3)C[C@H]2C(=O)O)c2oc3ccccc3c2n1 [Example 25, reference compound] | > 7.00 | > 17000 |  |  |  |  |  |
|  | (2S,4S)-4-({3-[(95)-9-Methyl-2,5-dioxa-8-azaspiro[3.5]nonan-8-yl]-5-(pyrimidin-5-yl)pyridin-2-yl}oxy)-1-[4-(trifluoromethyl)-8-oxa-3,5-diazatricyclo[7.4.0.0^2,7]trideca-1(9),2(7),3,5,10,12-hexaen-6-yl]pyrrolidine-2-carboxylic acid [Example 7.01] |  |  | 8.30 | 7.85 | 7.30 | 9260 | 1700 |
